Data published in PubChem BioAssay (NCI).
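Protocol summary: plate cells (96-well), add compound at 5 concentrations, incubate 48 h, interpolate endpoints linearly. TGI marks complete inhibition of growth.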

Legend:
Assay in all cases: growth of human tumour cells (NCI), 48 h
HCC-2998 colon = system: HCC-2998 colon
SF-539 CNS = system: SF-539 CNS
T-47D breast = system: T-47D breast
OVCAR-5 ovarian = system: OVCAR-5 ovarian
786-0 renal = system: 786-0 renal
MDA-MB-435 = system: MDA-MB-435
KM12 colon = system: KM12 colon
NCI/ADR-RES ovarian = system: NCI/ADR-RES ovarian
ACHN renal = system: ACHN renal
M14 melanoma = system: M14 melanoma
SK-MEL-5 melanoma = system: SK-MEL-5 melanoma
RXF 393 renal = system: RXF 393 renal
SF-295 CNS = system: SF-295 CNS
OVCAR-8 ovarian = system: OVCAR-8 ovarian
A549 NSCLC = system: A549 NSCLC
HS 578T breast = system: HS 578T breast
SF-268 CNS = system: SF-268 CNS
SNB-19 CNS = system: SNB-19 CNS
DU-145 prostate = system: DU-145 prostate
NCI-H23 lung = system: NCI-H23 lung
HOP-92 NSCLC = system: HOP-92 NSCLC
A498 renal = system: A498 renal
MCF7 breast = system: MCF7 breast
U251 CNS = system: U251 CNS
IGROV1 ovarian = system: IGROV1 ovarian
MALME-3M melanoma = system: MALME-3M melanoma
HL-60(TB) leukemia = system: HL-60(TB) leukemia
NCI-H226 lung = system: NCI-H226 lung
CAKI-1 renal = system: CAKI-1 renal
HT29 colon = system: HT29 colon
SK-OV-3 ovarian = system: SK-OV-3 ovarian
SN12C renal = system: SN12C renal
MDA-N = system: MDA-N
SK-MEL-2 melanoma = system: SK-MEL-2 melanoma
NCI-H522 lung = system: NCI-H522 lung
RPMI-8226 leukemia = system: RPMI-8226 leukemia
HCT-116 colon = system: HCT-116 colon
UACC-257 melanoma = system: UACC-257 melanoma
UO-31 renal = system: UO-31 renal
LOX IMVI melanoma = system: LOX IMVI melanoma
SNB-75 CNS = system: SNB-75 CNS
SW-620 colon = system: SW-620 colon
PC-3 prostate = system: PC-3 prostate
TK-10 renal = system: TK-10 renal
UACC-62 melanoma = system: UACC-62 melanoma
MDA-MB-231 breast = system: MDA-MB-231 breast
SK-MEL-28 melanoma = system: SK-MEL-28 melanoma
EKVX NSCLC = system: EKVX NSCLC
K-562 leukemia = system: K-562 leukemia
CCRF-CEM leukemia = system: CCRF-CEM leukemia
COLO 205 colon = system: COLO 205 colon
HCT-15 colon = system: HCT-15 colon
NCI-H460 lung = system: NCI-H460 lung
BT-549 breast = system: BT-549 breast
MOLT-4 leukemia = system: MOLT-4 leukemia
OVCAR-3 ovarian = system: OVCAR-3 ovarian
HOP-62 NSCLC = system: HOP-62 NSCLC
OVCAR-4 ovarian = system: OVCAR-4 ovarian

## CCOC(=O)C1C(C(C)C)C2(C#N)C(=N)OC1(C)C2(C#N)C#N (stereo not drawn)
HCC-2998 colon
  TGI: > 100 µM
SF-539 CNS
  TGI: > 100 µM
T-47D breast
  TGI: > 100 µM
OVCAR-5 ovarian
  TGI: > 100 µM
786-0 renal
  TGI: > 100 µM
MDA-MB-435
  TGI: > 100 µM
KM12 colon
  TGI: > 100 µM
NCI/ADR-RES ovarian
  TGI: > 100 µM
ACHN renal
  TGI: > 100 µM
M14 melanoma
  TGI: > 100 µM
SK-MEL-5 melanoma
  TGI: > 100 µM
RXF 393 renal
  TGI: > 100 µM
SF-295 CNS
  TGI: > 100 µM
OVCAR-8 ovarian
  TGI: > 100 µM
A549 NSCLC
  TGI: > 100 µM
HS 578T breast
  TGI: > 100 µM
SF-268 CNS
  TGI: > 100 µM
SNB-19 CNS
  TGI: > 100 µM
DU-145 prostate
  TGI: > 100 µM
NCI-H23 lung
  TGI: > 100 µM
HOP-92 NSCLC
  TGI: > 100 µM
A498 renal
  TGI: > 100 µM
MCF7 breast
  TGI: > 100 µM
U251 CNS
  TGI: > 100 µM
IGROV1 ovarian
  TGI: > 100 µM
MALME-3M melanoma
  TGI: > 100 µM
HL-60(TB) leukemia
  TGI: > 100 µM
NCI-H226 lung
  TGI: > 100 µM
CAKI-1 renal
  TGI: 23 µM
HT29 colon
  TGI: > 100 µM
SK-OV-3 ovarian
  TGI: > 100 µM
SN12C renal
  TGI: > 100 µM
MDA-N
  TGI: 33.6 µM
SK-MEL-2 melanoma
  TGI: > 100 µM
NCI-H522 lung
  TGI: > 100 µM
RPMI-8226 leukemia
  TGI: > 100 µM
HCT-116 colon
  TGI: > 100 µM
UACC-257 melanoma
  TGI: > 100 µM
UO-31 renal
  TGI: > 100 µM
LOX IMVI melanoma
  TGI: > 100 µM
SNB-75 CNS
  TGI: 74.4 µM
SW-620 colon
  TGI: > 100 µM
PC-3 prostate
  TGI: > 100 µM
TK-10 renal
  TGI: > 100 µM
UACC-62 melanoma
  TGI: > 100 µM
MDA-MB-231 breast
  TGI: > 100 µM
SK-MEL-28 melanoma
  TGI: > 100 µM
EKVX NSCLC
  TGI: > 100 µM
K-562 leukemia
  TGI: > 100 µM
CCRF-CEM leukemia
  TGI: > 100 µM
COLO 205 colon
  TGI: 82.1 µM
HCT-15 colon
  TGI: > 100 µM

## CC(=O)/C(=C/N1C(=O)CC(=O)NC1=S)C(=O)Nc1ccccc1C
HCC-2998 colon
  TGI: 84.7 µM
SF-539 CNS
  TGI: > 100 µM
T-47D breast
  TGI: > 100 µM
OVCAR-5 ovarian
  TGI: > 100 µM
786-0 renal
  TGI: 50.8 µM
MDA-MB-435
  TGI: > 100 µM
KM12 colon
  TGI: > 100 µM
NCI/ADR-RES ovarian
  TGI: > 100 µM
ACHN renal
  TGI: > 100 µM
M14 melanoma
  TGI: > 100 µM
SK-MEL-5 melanoma
  TGI: > 100 µM
RXF 393 renal
  TGI: > 100 µM
SF-295 CNS
  TGI: > 100 µM
OVCAR-8 ovarian
  TGI: > 100 µM
A549 NSCLC
  TGI: > 100 µM
SF-268 CNS
  TGI: > 100 µM
SNB-19 CNS
  TGI: > 100 µM
DU-145 prostate
  TGI: > 100 µM
NCI-H460 lung
  TGI: > 100 µM
BT-549 breast
  TGI: > 100 µM
NCI-H23 lung
  TGI: > 100 µM
HOP-92 NSCLC
  TGI: > 100 µM
A498 renal
  TGI: > 100 µM
MCF7 breast
  TGI: > 100 µM
U251 CNS
  TGI: > 100 µM
IGROV1 ovarian
  TGI: > 100 µM
HL-60(TB) leukemia
  TGI: > 100 µM
NCI-H226 lung
  TGI: > 100 µM
CAKI-1 renal
  TGI: > 100 µM
MOLT-4 leukemia
  TGI: > 100 µM
HT29 colon
  TGI: 53.5 µM
SK-OV-3 ovarian
  TGI: > 100 µM
SN12C renal
  TGI: > 100 µM
MDA-N
  TGI: > 100 µM
SK-MEL-2 melanoma
  TGI: > 100 µM
HCT-116 colon
  TGI: > 100 µM
UACC-257 melanoma
  TGI: > 100 µM
UO-31 renal
  TGI: > 100 µM
LOX IMVI melanoma
  TGI: > 100 µM
OVCAR-3 ovarian
  TGI: 96.4 µM
SNB-75 CNS
  TGI: > 100 µM
SW-620 colon
  TGI: 93.9 µM
TK-10 renal
  TGI: > 100 µM
UACC-62 melanoma
  TGI: 83.8 µM
HOP-62 NSCLC
  TGI: 64.2 µM
MDA-MB-231 breast
  TGI: > 100 µM
SK-MEL-28 melanoma
  TGI: > 100 µM
EKVX NSCLC
  TGI: > 100 µM
OVCAR-4 ovarian
  TGI: > 100 µM
COLO 205 colon
  TGI: > 100 µM
HCT-15 colon
  TGI: > 100 µM
